{"source": "ChEMBL document CHEMBL3507680", "about": "“University of Dundee, Gates Library screen for HepG2 cell viability”", "experiment": "Human HepG2 cell viability assay in 384 well format", "format": "toxicity, cell-based", "set-up": "dose 125 nL, time 70.5 hour; concentration not given beside the values", "conditions": "HepG2 cells, read-out: Inhibition", "data": [{"compound": "COc1cccc(C(=O)N2CCOC3(CCCN(C(C)=O)C3)C2)c1", "note": "(centres undefined)", "values": [{"measurement": "cytotoxicity at 70.5 h", "result": -16.1, "unit": "%"}]}, {"compound": "COc1ccccc1C1CNC(=O)c2nc(-c3nccn3C)[nH]c2C1", "note": "(centres undefined)", "values": [{"measurement": "cytotoxicity at 70.5 h", "result": 5.33, "unit": "%"}]}, {"compound": "COc1cccc(C(C(=O)O)N2CCCN(c3ccnc(C)c3)CC2)c1", "note": "(centres undefined)", "values": [{"measurement": "cytotoxicity at 70.5 h", "result": -7.15, "unit": "%"}]}, {"compound": "COc1ccc(Oc2ncccc2NC(=O)N2CCOC(C)C2)cc1", "note": "(centres undefined)", "values": [{"measurement": "cytotoxicity at 70.5 h", "result": -5.19, "unit": "%"}]}, {"compound": "O=S(=O)(c1ccccc1)N1C[C@@H]2COC[C@]2(CN2CCOCC2)C1", "values": [{"measurement": "cytotoxicity at 70.5 h", "result": 13.1, "unit": "%"}]}, {"compound": "COC1CCN(S(=O)(=O)N2C[C@H](c3ccccc3)[C@@H](N)C2)CC1", "values": [{"measurement": "cytotoxicity at 70.5 h", "result": -2.79, "unit": "%"}]}, {"compound": "CC1(C)Cc2nc(C(C)(C)C)ncc2C(NC(=O)Cc2nnn[nH]2)C1", "note": "(centres undefined)", "values": [{"measurement": "cytotoxicity at 70.5 h", "result": 52.3, "unit": "%"}]}, {"compound": "Cc1cc(CN2CCN(C(=O)NCc3c(C)noc3C)CC2)on1", "values": [{"measurement": "cytotoxicity at 70.5 h", "result": -13.9, "unit": "%"}]}, {"compound": "CCN1C(=O)CC[C@@H]2[C@H]1CCN2S(=O)(=O)c1cccs1", "values": [{"measurement": "cytotoxicity at 70.5 h", "result": -4.53, "unit": "%"}]}, {"compound": "CC(O)(CNc1ccc(Cl)c(C#N)n1)c1ccccc1", "note": "(centres undefined)", "values": [{"measurement": "cytotoxicity at 70.5 h", "result": 13.8, "unit": "%"}]}, {"compound": "CC(C)c1nn(C)c(N(C)C)c1CNC1CCN(C2CC2)CC1", "values": [{"measurement": "cytotoxicity at 70.5 h", "result": -2.94, "unit": "%"}]}, {"compound": "c1cc(CNc2ncc(-c3cnccn3)c(C3CC3)n2)ccn1", "values": [{"measurement": "cytotoxicity at 70.5 h", "result": -2.59, "unit": "%"}]}, {"compound": "O=c1cc(N2CCc3ccccc3C2)cnn1CCC1CCOC1", "note": "(centres undefined)", "values": [{"measurement": "cytotoxicity at 70.5 h", "result": 1.4, "unit": "%"}]}, {"compound": "Cc1cccc(Nc2cc(C3CCCN(CC(N)=O)C3)ccn2)n1", "note": "(centres undefined)", "values": [{"measurement": "cytotoxicity at 70.5 h", "result": 22.5, "unit": "%"}]}, {"compound": "CC(NC(=O)C1CCN(S(N)(=O)=O)CC1)c1cccc(OC(F)F)c1", "note": "(centres undefined)", "values": [{"measurement": "cytotoxicity at 70.5 h", "result": -1.7, "unit": "%"}]}, {"compound": "CCS(=O)(=O)NCCN1CCc2ccc(F)cc2C1C", "note": "(centres undefined)", "values": [{"measurement": "cytotoxicity at 70.5 h", "result": -4.91, "unit": "%"}]}, {"compound": "CCc1nsc(N2CCn3c(nnc3C(F)(F)F)C2)n1", "values": [{"measurement": "cytotoxicity at 70.5 h", "result": 2.89, "unit": "%"}]}, {"compound": "CCn1cc(NC(=O)C2CCN(CC(=O)NC3CCCC3)CC2)cn1", "values": [{"measurement": "cytotoxicity at 70.5 h", "result": -0.528, "unit": "%"}]}, {"compound": "O=C(CNC(=O)N1CCc2c([nH]c3ccc(Cl)cc23)C1)NC1CCCC1", "values": [{"measurement": "cytotoxicity at 70.5 h", "result": -0.711, "unit": "%"}]}, {"compound": "Cc1ccc(C(=O)NCc2ccnc(N(C)C)c2)c(C)c1", "values": [{"measurement": "cytotoxicity at 70.5 h", "result": 1.03, "unit": "%"}]}, {"compound": "COC1CCN(CCNC(=O)NC(C)c2ccc(F)c(F)c2)CC1", "note": "(centres undefined)", "values": [{"measurement": "cytotoxicity at 70.5 h", "result": 23.5, "unit": "%"}]}, {"compound": "CN(CCCc1cnn(C)c1)C(=O)Nc1cccc2[nH]ncc12", "values": [{"measurement": "cytotoxicity at 70.5 h", "result": -15.7, "unit": "%"}]}, {"compound": "COCCNC(=O)[C@H]1CN(Cc2scnc2C)C[C@H]2OCC[C@@H]12", "values": [{"measurement": "cytotoxicity at 70.5 h", "result": -3.43, "unit": "%"}]}, {"compound": "CCN1C(=O)C2(CCN(CCN(C)C)CC2)c2ccccc21", "values": [{"measurement": "cytotoxicity at 70.5 h", "result": 19.9, "unit": "%"}]}, {"compound": "CC(CS(C)(=O)=O)N(C(=O)Nc1cc(F)ccc1Cl)C1CC1", "note": "(centres undefined)", "values": [{"measurement": "cytotoxicity at 70.5 h", "result": 2.35, "unit": "%"}]}, {"compound": "CCN(CC)C(=O)[C@@H]1C[C@H](N)CN1c1nnc(-c2ccccc2)s1", "values": [{"measurement": "cytotoxicity at 70.5 h", "result": 18.2, "unit": "%"}]}, {"compound": "Cc1cc(C)n(C2CCN(Cc3nc4ccccc4n3C)CC2)n1", "values": [{"measurement": "cytotoxicity at 70.5 h", "result": 1.81, "unit": "%"}]}, {"compound": "O=c1c2cccnc2cnn1CC(O)c1ccc(F)c(F)c1", "note": "(centres undefined)", "values": [{"measurement": "cytotoxicity at 70.5 h", "result": -6.63, "unit": "%"}]}, {"compound": "CC(C)(C)OC(=O)N1CSC[C@@H]1C(=O)NCc1ccc(C#N)cc1", "values": [{"measurement": "cytotoxicity at 70.5 h", "result": -3.01, "unit": "%"}]}, {"compound": "CCN(Cc1noc(CC(C)C)n1)Cc1ccccc1OCC(=O)O", "values": [{"measurement": "cytotoxicity at 70.5 h", "result": -2.84, "unit": "%"}]}, {"compound": "Cc1cc(C)n(CC2CN(Cc3nc(-c4ccoc4)no3)CCO2)n1", "note": "(centres undefined)", "values": [{"measurement": "cytotoxicity at 70.5 h", "result": -15.7, "unit": "%"}]}, {"compound": "O=C(CN1CC(c2nc(Cc3ccccc3)no2)C1)NCC1CCCO1", "note": "(centres undefined)", "values": [{"measurement": "cytotoxicity at 70.5 h", "result": -0.885, "unit": "%"}]}, {"compound": "CCC1(C)Cc2ccccc2-c2nc(NCCO)nc(O)c21", "note": "(centres undefined)", "values": [{"measurement": "cytotoxicity at 70.5 h", "result": -26.4, "unit": "%"}]}, {"compound": "CC(C#N)(NC(=O)c1ccc(C#N)cc1)C1CC1", "note": "(centres undefined)", "values": [{"measurement": "cytotoxicity at 70.5 h", "result": -0.776, "unit": "%"}]}, {"compound": "CCn1c(=O)n(CC)c2cc(S(N)(=O)=O)ccc21", "values": [{"measurement": "cytotoxicity at 70.5 h", "result": -2.33, "unit": "%"}]}, {"compound": "O=C(c1ccc(F)c(F)c1)N1CCCCC1c1nc[nH]n1", "note": "(centres undefined)", "values": [{"measurement": "cytotoxicity at 70.5 h", "result": -6.52, "unit": "%"}]}, {"compound": "Cc1c2ncn(CC(=O)N(C)C)c(=O)c2nn1C", "values": [{"measurement": "cytotoxicity at 70.5 h", "result": -8.37, "unit": "%"}]}, {"compound": "O=C1CCN(CCCS(=O)(=O)c2ccc(Cl)cc2)CCN1", "values": [{"measurement": "cytotoxicity at 70.5 h", "result": -4.67, "unit": "%"}]}, {"compound": "CC(=O)N(C)c1nc(Cn2nnnc2C2CCCC2)cs1", "values": [{"measurement": "cytotoxicity at 70.5 h", "result": 0.35, "unit": "%"}]}, {"compound": "O=C(c1nn[nH]c1Nc1ccc(Cl)cc1)N1CCCCCC1", "values": [{"measurement": "cytotoxicity at 70.5 h", "result": -10.3, "unit": "%"}]}, {"compound": "CC1CCc2n[nH]c(C(=O)N3CCc4c(nc(N(C)C)[nH]c4=O)C3)c2C1", "note": "(centres undefined)", "values": [{"measurement": "cytotoxicity at 70.5 h", "result": -13.8, "unit": "%"}]}, {"compound": "CCn1c(Cn2cncn2)nnc1C1CCN(CCN)CC1", "values": [{"measurement": "cytotoxicity at 70.5 h", "result": 17.7, "unit": "%"}]}, {"compound": "CN1CC(Oc2ccc(Cl)cc2)=NC(SCC(=O)Nc2ccccc2)=N1", "values": [{"measurement": "cytotoxicity at 70.5 h", "result": 7.43, "unit": "%"}]}, {"compound": "N#Cc1ccccc1CN(CCO)Cc1ccsc1", "values": [{"measurement": "cytotoxicity at 70.5 h", "result": -14.1, "unit": "%"}]}]}
